Test results taken from US10426755B2, “Methods for inhibiting cancer cells” (Chang Gung Memorial Hospital, Chiayi, priority 2015, dated 2019).
“Also recorded” adds a separate entry of the source.

Legend:
Assay type in all cases: cell-based
[1] = tested on: prostate cancer cells (hormone therapy-resistant PC3, DU145 and LNCaP); assay: Annexin V/PI flow cytometry apoptosis/necrosis, prostate cancer cells; settings: 10 or 20 μM DT, 24-48 hours, vs PBS and DMSO vehicle (CT); time dependent; FIG. 6
Method: (§1) The effect of DT on metastatic prostate cancer cells (hormone therapy-resistant PC3, DU145 and LNCaP); lung cancer cells (A549 and chemotherapy-resistant/metastatic H460); and breast cancer cells (MCF-7, tamoxifen-resistant MCF7 and MDA MB-231) was assessed.
(§2) 1×10^6 Cancer cells were seeded in a 100-mm plate and cultured overnight. The cancer cells were treated with phosphate buffered saline (PBS), a Dimethyl sulfoxide (DMSO) vehicle (CT), 10 or 20 μM of DT for 24-48 hours, then collected and washed with cold PBS. The supernatant was removed by centrifugation and resuspended in FITC Annexin V binding buffer and Propidium iodide (PI) (Annexin V-FITC Apoptosis Detection Kit, commercially available from Strong Biotech Corporation, Taiwan). The suspended cancer cells were stained at room temperature, in the dark for 15 min and analyzed by the BD FACSCanto™ flow cytometry (Becton Dickinson, USA). The amount of early apoptosis, late apoptosis, and necrosis was measured as the percentage of annexin-V positive/PI negative (Q4 in the FACS images), annexin-V positive/PI positive (Q2 in the FACS images), and annexin-V negative/PI positive cells (Q1 in the FACS images), respectively. Normal cells are in […] of the FACS images.

[2] = tested on: skp2, MMP2, MMP9 in DU145, PC3 and 22RV1 prostate cancer cells; assay: skp2 and downstream gene mRNA expression, prostate cancer cells; settings: various concentrations of DT vs DMSO; PC3, DU145, 22RV1; FIG. 9 (h)-(l)
Method: It has been reported that skp2 plays an important role in the metastasis of cancer cells. An in vitro evaluation of the effect of DT on prostate cancer cell metastasis was performed, by measuring the mRNA expression of skp2 in the following prostate cancer cell lines: meatstatic DU145 cells (Panels i-j of FIG. 9), hormone therapy resistant and metastatic PC3 cells (Panel h of FIG. 9), and 22RV1 cells (Panels k-l of FIG. 9), A549 lung cancer cells (Panels (c)-(e) of FIG. 10), chemotherapy-resistant/metastatic H460 lung cancer cells (Panels (d) and (f) of FIG. 10), HCT116 colon cancer cells (Panels (g) and (i) of FIG. 10) and MCF7-tamoxifen resistant breast cancer cells (Panels (h) and (j) of FIG. 10) […].
The cancer cells were treated with DMSO and various concentrations of DT.

[3] = tested on: breast cancer cell lines (MDA-MB-231, MCF-7 and tamoxifen-resistant MCF-7); assay: XTT proliferation assay, breast cancer cells; settings: 0, 5, 10 and 20 μM DT, 1-3 days, FIG. 3
Method: The prostate cancer cells were plated at a density of 10^3 or 3×10^3 per well, in a 96-well plate, in a medium containing 10% Fetal bovine serum (FBS) (Gibco®, commercially available from Life Technologies, USA). Once the prostate cancer cells were attached to the culture dish, the 10% FBS medium was replaced with a second 10% FBS medium and each of the prostate cancer cell line was treated with 1, 5, and 10 μM of DT respectively for 1-2 days. The absorbance was measured using XTT assay kit (commercially available from Roche, Switzerland) at 492 nm using an ELISA reader (Bio-Rad Laboratories, USA).
An in vitro evaluation of the effect of DT on the breast cancer cells was performed. The breast cancer cell lines, MDA-MB-231, MCF-7 and tamoxifen-resistant MCF-7 breast cancer cells were obtained from Bioresource Collection and Research Center, Taiwan. The breast cancer cells were cultured in Eagle's Minimum Essential Medium containing 10% charcoal-stripped fetal bovine serum and plated according to the steps in Example 1 and each of the breast cancer cell line was treated with 0 (control), 5, 10 and 20 μM of DT, respectively for 1-3 days. The absorbance was measured using XTT assay kit at 492 nm using an ELISA reader.

CCL2 in THP1 monocytes = assay: CCL2 ELISA of culture medium, THP1 monocytes; settings: 5 or 10 μM DT, 24 hours, vs DMSO, FIG. 14 (b)
Method: (§3) It has been reported that increased CCL2 expression enhances cancer cell metastasis via macrophage recruitment. The effect of DT on CCL2 expression in RAW264.7 macrophages, THP1 monocytes and prostate cancer cells (metastatic DU145 and hormone therapy resistant and metastatic PC3) was examined by treating the cells with DMSO (control), 5 or 10 μM DT for 24 hours.
(§4) The culture medium was collected and the concentration of CCL2 was measured using ELISA assay.

[4] = tested on: breast cancer cells (MCF-7, tamoxifen-resistant MCF7 and MDA MB-231); assay: Annexin V/PI flow cytometry apoptosis/necrosis, breast cancer cells; settings: 10 or 20 μM DT, 24-48 hours, vs PBS and control; time dependent; FIG. 8
Method: as §1, §2

[5] = tested on: lung cancer cells (A549 and chemotherapy resistant/metastatic H460); assay: Cell invasion assay (transwell, Matrigel), lung cancer cells; settings: 5 or 10 μM DT, 3 days, vs control vehicle; FIG. 11
Method: An in vitro evaluation of the effect of DT on lung cancer cells (A549 and chemotherapy resistant/metastatic H460), prostate cancer cells (metastatic DU145) and colorectal cancer cells (chemotherapy resistant HCT116) invasion and migration was performed, using cell invasion assay and cell migration assay.
Cell Invasion Assay: cells of interest were treated with a control vehicle, 5 or 10 μM of DT and incubated for 3 days. 1×10^5 cells were placed into the upper chamber of transwell plates (8 μm) with membranes pre-coated with 20% Matrigel and the bottom chamber contained 600 μL media supplemented with 10% fetal bovine serum (FBS). The cells migrated to the bottom of the chamber were fixed, stained and counted.

macrophages = assay: Macrophage mobility after DT treatment; settings: macrophages treated with 5 or 10 μM DT vs DMSO
Method: (§5) An in vitro study to evaluate the effect of DT on macrophage and cancer cell migration was performed.
(§6) Macrophages were treated with a vehicle (DMSO), 5 or 10 μM DT. The mobility of the macrophages was not affected by DT. The macrophages were placed in an invasive assay, prepared accordingly to the steps in Example 10 using DT-treated prostate cancer cells (DU145 or PC3) incubated in 10% CD-FBS RPMI medium.

[6] = tested on: macrophages with prostate cancer cells (DU145 or PC3); assay: Macrophage migration in invasive assay with DT-treated prostate cancer cells; settings: DT-treated vs untreated DU145 and PC3 cells; images not shown
Method: as §5, §6

[7] = tested on: CCL2 in RAW264.7 macrophages; assay: CCL2 ELISA of culture medium, RAW264.7 macrophages; settings: 5 or 10 μM DT, 24 hours, vs DMSO, FIG. 14 (a)
Method: as §3, §4

## Cc1cccc2c3c(ccc12)C(=O)C1=C(OCC1C)C3=O (stereo not drawn) [DT, dihydroisotanshinone I]
[1]
  early apoptosis, late apoptosis and necrosis, prostate cancer cells: more early apoptosis, late apoptosis and necrosis; also recorded: induced prostate cancer cell apoptosis/necrosis
[2]
  mRNA expression of skp2 and its downstream genes, prostate cancer: effectively inhibit mRNA expression of skp2 and its downstream genes; also recorded: reduced skps and its downstream genes, MMP2 and MMP9
[3]
  inhibition of breast cancer cells (proliferation): effective in inhibiting breast cancer cells, even for the tamoxifen-resistant MCF-7 breast cancer cells, in a dose dependent and time dependent fashion
CCL2 in THP1 monocytes
  production of CCL2 in THP1 monocytes: effectively inhibit the production of CCL2
[4]
  early apoptosis, late apoptosis and necrosis, breast cancer cells: more early apoptosis, late apoptosis and necrosis
[5]
  lung cancer cell motility (invasion assay): reduced metastatic lung cancer cell motility; also recorded: reduced the motility of lung cancer cells
macrophages
  mobility of the macrophages: not affected
[6]
  macrophage migration induced by prostate cancer cells: inhibit macrophage migration
[7]
  production of CCL2 in macrophages: effectively inhibit the production of CCL2
